The values below come from PubChem BioAssay (NCI).

Values joined by “and” are separate entries in the source; they are usually repeats but may differ in a detail not shown here. Equal entries are not always repeated.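 Step 1: Grow cells in 96-well plates. Step 2: Expose to compound for 48 hours at 5 concentrations. Step 3: Interpolate endpoints linearly; if unreached, use highest concentration. GI50: concentration for 50% inhibition of growth. TGI marks complete inhibition of growth.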 A value given as a limit tells only on which side of the number the result lay.

By TGI is commonly meant the concentration at which net growth stops. Broadly, the GI50 is the concentration that inhibits growth by half.

The test system of one experiment is DMS 114 small cell lung. Briefly: DTP human tumour cell line panel, 48 h.
`COc1c(Br)cc(Br)c(OC)c1-c1[nH]c(Br)c(Br)c1Br` gave a TGI of 19.4 µM.

`CCOC(=O)c1ccc(N[C@@H]2c3cc4c(cc3C(C3=CC(=O)C(=O)C(OC)=C3)[C@H]3C(=O)OCC32)OCO4)cc1` (some centres undefined) displayed a TGI of 6.89 µM.

Take `CNC(SC)=C1C(=O)OC(C)(C)OC1=O`: the TGI was above 100 µM.

Regarding `NC(=O)/C=C/C(=O)O`, the TGI is above 5000 µM.

In turn, `CC(CC(=O)Nc1ccc(NC(=O)CC(C)N=NC(N)=S)cc1)N=NC(N)=S` (centres undefined) had a TGI above 100 µM.

Regarding `Cc1c(C(=O)CSc2nc3ccccc3c(=O)n2-c2ccccc2)c(=O)n(-c2ccccc2)n1C`, the TGI is above 100 µM.

As to `COC(=O)/C(C#N)=C1\CCC(C(=O)OC)N1C` (centres undefined), the TGI was above 100 µM.

As for `CC(=O)OC1COC(n2c(=S)n(-c3ccccc3)c(=O)c3cc(Br)ccc32)C(OC(C)=O)C1OC(C)=O` (centres undefined), the TGI is above 100 µM.

Regarding `CC(C)c1ccccc1NC(=O)/C(Cl)=C1/Sc2ccccc2NC1=O`, the total growth inhibition concentration (TGI) is 53.4 µM.

`CC(=O)OCC1OC(n2cc([N+](=O)[O-])c(=O)[nH]c2=O)C(OC(C)=O)C(OC(C)=O)C1OC(C)=O` (centres undefined) returned a TGI above 100 µM.

`Cc1cn(C2OC(C)(CO)C(O)C2O)c(=O)[nH]c1=O` (centres undefined): the TGI was above 100 µM.

Molecule `CC1(Cc2ccccc2)NC(=S)NC1=O` (centres undefined) displayed a TGI above 100 µM.

For `Cc1ccc(S(=O)(=O)N/N=C(\c2nc3ccc([N+](=O)[O-])cc3[nH]c2=O)C(O)c2ccccc2Cl)cc1` (centres undefined), the TGI is above 100 µM.

Molecule `COC1OC(C)C(OCc2ccccc2)C(OS(=O)(=O)c2ccc(C)cc2)C1OS(=O)(=O)c1ccc(C)cc1` (centres undefined) displayed a TGI above 100 µM.

In turn, `O=C1C2=C(c3ccccc31)C(c1ccccc1Cl)N1C(=O)CCSC1=N2` (centres undefined) displayed a TGI above 100 µM.

Turning to `Cc1ccc2nc3c(Cl)c(C)c(=O)cc-3sc2c1`, the GI50 is 25.4 µM; the TGI is > 1 µM and 76 µM.

The test system of another experiment is HS 578T breast. Briefly: DTP human tumour cell line panel, 48 h.
Turning to `Cc1cc2c(Br)cc(Br)c(O)c2nc1C(=O)c1ccccc1`, the TGI is above 100 µM.

Take `CC1CCCc2c1nn(C(=O)/C=C(\N)c1ccccc1)c2N` (centres undefined): the GI50 is 22.4 µM and the TGI is above 100 µM.

`CCSc1nc(N)c2cn[nH]c2n1`: the GI50 is 22.2 µM and the TGI amounted to 70.1 µM.

Consider `O=c1c2c3c(sc2n2c(-c4cc(-c5ccccc5)nn4-c4ccccc4)nnc2n1Cc1ccccc1)CCCC3`, for which the GI50 was 48 µM and the TGI was above 100 µM.

Regarding `C[C@H]1[C@H](C)CC[C@]2(C(=O)NCCNCCN)CC[C@]3(C)C(=CC[C@@H]4[C@@]5(C)CCC(=O)C(C)(C)[C@@H]5CC[C@]43C)[C@H]12`, the GI50 was 1.7 µM and the concentration for total growth inhibition (TGI) amounted to 3.74 µM.

Consider `COc1ccc(CC(C)C(C)Cc2ccc(OC)c(OC)c2)cc1OC` (centres undefined), for which the GI50 was above 1400 µM and the TGI is above 1400 µM.

The molecule `Cc1ccc2c(c1)Sc1ccc(N=NN(C)C)cc1N2C` showed a TGI above 100 µM.

Consider `Cc1ncc(C(=O)Nc2ccc(CN3CCN(C)CC3)c(C(F)(F)F)c2)cc1C#Cc1cnc(NC2CC2)c2ncccc12`, for which the GI50 was 1.19 µM and the TGI is 4.44 µM.

Molecule `C=CCO/N=C/c1cc(NC(=S)c2ccoc2C)ccc1Cl` showed a TGI of 64.4 µM.

Take `CCCCCCCCCCN=C(c1ccc(N(C)C)cc1)c1ccc(N(C)C)cc1`: the GI50 is 1.02 µM and the TGI came to 39.1 µM.

Turning to `CCCCCCCCCCCCCCCCCCNC(=O)[C@H]1CSC(c2cccs2)N1` (some centres undefined), the GI50 was 1.17 µM and the TGI turned out to be 2.98 µM.

`Cn1c2ccccc2c2c(=O)c3ccccc3[nH]c21`: the GI50 was above 100 µM and the TGI is above 100 µM.

The test system of a further experiment is NCI/ADR-RES ovarian. Briefly: DTP human tumour cell line panel, 48 h.
The molecule `Cc1cc2c(Br)cc(Br)c(O)c2nc1C(=O)c1ccccc1` registered a total growth inhibition concentration (TGI) above 100 µM.

As for `CC1CCCc2c1nn(C(=O)/C=C(\N)c1ccccc1)c2N` (centres undefined), the GI50 is 6.03 µM and the TGI came out at 39.4 µM.

`CCSc1nc(N)c2cn[nH]c2n1`: the GI50 is 28.4 µM and the TGI amounted to 85.6 µM.

`O=c1c2c3c(sc2n2c(-c4cc(-c5ccccc5)nn4-c4ccccc4)nnc2n1Cc1ccccc1)CCCC3`: the GI50 was above 100 µM and the TGI was above 100 µM.

`C[C@H]1[C@H](C)CC[C@]2(C(=O)NCCNCCN)CC[C@]3(C)C(=CC[C@@H]4[C@@]5(C)CCC(=O)C(C)(C)[C@@H]5CC[C@]43C)[C@H]12`: the GI50 is 5.16 µM and the concentration for total growth inhibition (TGI) was 20 µM.

For `COc1ccc(CC(C)C(C)Cc2ccc(OC)c(OC)c2)cc1OC` (centres undefined), the GI50 is above 1400 µM and the TGI is above 1400 µM.

Turning to `Cc1ccc2c(c1)Sc1ccc(N=NN(C)C)cc1N2C`, the TGI is above 100 µM.

As to `Cc1ncc(C(=O)Nc2ccc(CN3CCN(C)CC3)c(C(F)(F)F)c2)cc1C#Cc1cnc(NC2CC2)c2ncccc12`, the GI50 was 2.32 µM and the TGI worked out at 5.28 µM.

Regarding `C=CCO/N=C/c1cc(NC(=S)c2ccoc2C)ccc1Cl`, the TGI is 29 µM.

`CCCCCCCCCCN=C(c1ccc(N(C)C)cc1)c1ccc(N(C)C)cc1`: the GI50 is 0.406 µM and the TGI stood at 42.4 µM.

`CCCCCCCCCCCCCCCCCCNC(=O)[C@H]1CSC(c2cccs2)N1` (some centres undefined): the GI50 was 1.06 µM and the concentration for total growth inhibition (TGI) was 2.31 µM.

For `Cn1c2ccccc2c2c(=O)c3ccccc3[nH]c21`, the GI50 is 43.7 µM and the TGI was above 100 µM.
